{
  "source": "paper PMC4043716",
  "about": "(Drug Design, Development and Therapy, 2014)",
  "key": {"NIH3T3 cells [1]": {"system": "NIH3T3 cells", "assay": "MTT cell proliferation assay", "assay_type": "cell-based, mouse", "details": "1 μM staurosporine alone, 24 hours"}, "caspase-3/7": {"system": "caspase-3/7", "assay": "Apo-ONE Homogeneous Caspase-3/7 Assay in NIH3T3 cells", "assay_type": "cell-based, mouse", "details": "1 μM staurosporine alone, 6 hours"}, "[2]": {"assay_type": "cell-based", "details": "human, U87MG cells"}, "[3]": {"assay_type": "cell-based", "details": "rat, PC12 cells"}, "[4]": {"assay_type": "cell-based", "details": "human, SH-SY5Y cells"}, "NIH3T3 cells [5]": {"system": "NIH3T3 cells", "assay": "JC-10 mitochondrial membrane potential assay", "assay_type": "cell-based, mouse", "details": "1 μM staurosporine alone, 6 hours"}, "NIH3T3 cells [6]": {"system": "NIH3T3 cells", "assay_type": "cell-based, mouse", "details": "1 μM staurosporine alone, 24 hours"}},
  "note": "Where two headings read alike, the source gives them in different places.",
  "data": [
    {"smiles": "CN[C@@H]1C[C@H]2O[C@@](C)([C@@H]1OC)n1c3ccccc3c3c4c(c5c6ccccc6n2c5c31)C(=O)NC4", "note": "[staurosporine]", "values": [
      {"measurement": "Cell viability by MTT", "setting": "NIH3T3 cells [1]", "value": "reduced the cell viability dramatically"},
      {"measurement": "Caspase activation (caspase-3/7 activity)", "setting": "caspase-3/7", "value": "induced significant caspase activation"},
      {"measurement": "viability at 24 h, 1 μM", "setting": "[2]", "value": 8, "unit": "%"},
      {"measurement": "viability at 24 h, 1 μM", "setting": "[3]", "value": 4, "unit": "%"},
      {"measurement": "viability at 24 h, 1 μM", "setting": "[4]", "value": 6, "unit": "%"},
      {"measurement": "Mitochondrial membrane potential", "setting": "NIH3T3 cells [5]", "value": "significantly lost mitochondrial membrane potential"},
      {"measurement": "Cell death", "setting": "NIH3T3 cells [6]", "value": "over 90%"}
    ]}
  ]
}
